We go through one molecule from PMC8955265, “Systematic Discovery of FBXW7-Binding Phosphodegrons Highlights Mitogen-Activated Protein Kinases as Important Regulators of Intracellular Protein Levels” (International Journal of Molecular Sciences, 2022).

Where a SMILES comes first, the peptide text is derived from it. [ ]: non-standard residue; d: D form. The star is where a group is joined. 5FAM = O=C1OC2(c3ccc(O)cc3Oc3cc(O)ccc32)c2ccc(C(=O)*)cc21; pT = C[C@@H](OP(=O)(O)O)[C@H](N)C(=O)O; pS = N[C@@H](COP(=O)(O)O)C(=O)O

The target in the experiment is T1, Skp1-FBXW7 complex (Homo sapiens, UniProt P63208+Q969H0).
T1 construct: human FBXW7 (263-707) with an N-terminal hexa-histidine (His6) tag; His6 (N, cleaved yes); made in house; host or cells: E. coli Rosetta (DE3)
In words: Fluorescence polarization direct titration of labeled CCNE peptide. The class given is binding. To be noted: FP direct titration, 50 nM CF-labeled CCNE peptide with increasing Skp1-FBXW7; 20 mM Tris pH 8.0, 100 mM NaCl, 0.05% Brij35P, 2 mM TCEP; value printed in plot. The method, then:
Truncated Skp1 (1-149) and human FBXW7 (263-707) with an N-terminal hexa-histidine (His6) tag were cloned into a bicistronic plasmid (pMG950) and were co-expressed in E. coli Rosetta (DE3) strain. The Skp1-FBXW7 complex was purified using affinity, anion exchange, and gel filtration chromatography. The DNA expression plasmid was transformed into E. coli Rosetta (DE3) strain and grown in LB until OD600 = 0.5, protein expression was induced with 100 µM isopropyl-β-d-1-thigalatopyaranoside (IPTG) overnight at 18 °C. The cell pellet was lysed, and the recombinant protein was purified using Ni-NTA agarose beads. Before further purification the His6-tag was removed by using the TEV protease and then the protein complex was further purified using anion exchange chromatography twice, first with a Resource Q and then with a Mono Q column (pH = 8). Finally, the complex was subjected to size-exclusion chromatography in 20 mM Tris, pH = 8, 150 mM NaCl, and 1 mM DTT using a Superdex200 10/300 column (GE Healthcare, Chicago, IL, USA). The eluted fractions were pooled together and were supplemented with 10% glycerol and 2 mM TCEP before concentration and storage. […]
Background: Polarisation of emitted light reports the rotation of a fluorescent probe.

T1 sequence (Q969H0 263-707): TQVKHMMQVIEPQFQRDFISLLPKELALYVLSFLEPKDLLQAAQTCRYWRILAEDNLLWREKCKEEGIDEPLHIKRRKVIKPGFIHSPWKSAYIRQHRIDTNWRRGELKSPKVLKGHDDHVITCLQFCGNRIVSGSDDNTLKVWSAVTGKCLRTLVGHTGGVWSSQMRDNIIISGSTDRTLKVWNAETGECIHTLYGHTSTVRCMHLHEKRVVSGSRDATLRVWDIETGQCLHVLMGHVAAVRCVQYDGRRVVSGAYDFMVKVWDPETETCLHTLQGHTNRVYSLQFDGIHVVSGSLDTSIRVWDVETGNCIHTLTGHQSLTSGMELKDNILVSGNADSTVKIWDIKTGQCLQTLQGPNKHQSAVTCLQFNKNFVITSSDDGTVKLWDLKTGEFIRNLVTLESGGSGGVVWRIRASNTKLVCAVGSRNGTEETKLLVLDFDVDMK
T1 sequence (P63208 1-149 partner limits assumed): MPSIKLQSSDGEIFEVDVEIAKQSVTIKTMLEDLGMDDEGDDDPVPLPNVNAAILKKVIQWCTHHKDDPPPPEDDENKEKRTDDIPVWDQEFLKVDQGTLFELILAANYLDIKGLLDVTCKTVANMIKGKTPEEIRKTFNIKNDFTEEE

As a reminder, the Kd is the free concentration of one partner at which half of the binding sites on the other are occupied at equilibrium, for simple one-to-one binding. Lower therefore signals higher affinity. Consider `CC(C)C[C@H](NC(=O)CNC(=O)[C@H](CO)NC(=O)[C@@H]1CCCN1C(=O)c1ccc2c(c1)C(=O)OC21c2ccc(O)cc2Oc2cc(O)ccc21)C(=O)N[C@@H](CC(C)C)C(=O)N[C@H](C(=O)N1CCC[C@H]1C(=O)N1CCC[C@H]1C(=O)N[C@@H](CCC(N)=O)C(=O)N[C@@H](COP(=O)(O)O)C(=O)NCC(=O)N[C@@H](CCCCN)C(=O)N[C@@H](CCCCN)C(=O)N[C@@H](CCC(N)=O)C(=O)O)[C@@H](C)OP(=O)(O)O` [fluorescently labeled CCNE peptide] (5FAM-PSGLL[pT]PPQ[pS]GKKQ-OH), for which the Kd was determined as 2.8 ± 1.6 nM.
